Reference: patent US8058258B2, “Methods for cancer therapy and stem cell modulation” (Agency for Science, Technology and Research, priority 2006, dated 2011)

Tests used:
[1] = test system: PRC2 components SUZ12, EZH2 and EED; assay: Western blot of PRC2 protein levels after drug treatment; type: cell-based, human; conditions: HCT116 or MCF-7 cells, 5 μM, 48 and 72 hours
Method: Cell lines used in these examples were purchased from the American Type Culture Collection (Manassas, Va.). Cells were maintained in DMEM supplemented with 10% fetal bovine serum with glutamine, penicillin, and streptomycin. For drug treatment, cells were seeded the day before the drug treatment. Cells were treated with 5 μM 3-Deazaneplanocin A or 2 μM 5-aza-2'-deoxycytidine (5-AzaC; Sigma) for 72 hours and trichostatin A (TSA; Sigma) at 100 nM for 24 hours. For co-treatment of cells with 5-AzaC and TSA, 5-Aza was added for 48 hours and followed by TSA for 24 hours. Cell pellets were first lysed in RadioImmuno Precipitation Assay (RIPA) buffer, consisting of an aqueous solution of 25 mM Tris-HCl pH 7.6, 150 mM NaCl, 1% Nonidet-P 40 (NP-40), 1% sodium deoxycholate and 0.1% sodium dodecylsulfate (SDS), before further sonicated using a tissue homogeniser to release all the proteins. Equal amounts of protein were separated on SDS-polyacrylamide gels and transferred to polyvinylidene difluoride (PVDF) membranes. The blots were probed with antibodies against: EED (07-368), SUZ12 (07-379), SUV39H1 (07-550), BMI1 (05-637), tri-methylated H3-K27 (07-449), tri-methylated H3-K9 (07-442) and Acetyl-Histone H3 (06-599), and were purchased from Upstate. EZH2 (AC22) and Histone H3 (3H1) were from Cell Signaling. […]

[2] = test system: caspase 3 in HCT116 cells; assay: Caspase 3 activity by flow cytometry; type: cell-based
Text: FIG. 3D depicts the detection of activation the protease caspase 3 potential in HCT116 cells by 3-deazaneplanocin (DZNep, right hand side), which occurs during apoptosis. Cells were trypsinised and washed with PBS and fixed in 70% ethanol and processed for propidium iodide staining and FACS analysis. For the caspase 3 activity assay and mitochondrial membrane potential detection, cells were stained with anti-active caspase 3 and JC-1, respectively, according to the manufacturer's instructions (BD Bioscience).

[3] = test system: mRNA of EZH2, SUZ12 and EED; assay: RT-PCR of mRNA levels of PRC2 proteins; type: cell-based; conditions: HCT116 cells, after 3-deazaneplanocin treatment
Method: FIG. 1B depicts the analysis of the mRNA levels of the PRC2 proteins EZH2, SUZ12, and EED by reverse transcription (RT-PCR) before (-) and after (+)3-deazaneplanocin treatment. HCT116 cells were treated as in (a) and total RNA was isolated for RT-PCR analysis GAPDH served as a control. […] Accordingly, trimethylation of histone 3 at […] In contrast, histone H3 methylation at […] (H3-K9) was not affected by 3-deazaneplanocin treatment.

MB-468 cells = assay: Cell death / apoptosis by PI staining and flow cytometry; type: cell-based, human
Method: FIG. 3A depicts the detection of cell death of a variety of cancer cells upon exposure to 3-deazaneplanocin (DZNep) compared to untreated controls cells (DMSO=dimethyl sulfoxide). Breast cancer MCF-7 and MB-468 cells, colorectal HCT116, RKO and SW480 cells were treated with 5 μm 3-deazaneplanocin for 48 and 72 h, and cell death was detected by means of propodium iodide (PI) staining and flow cytometry analysis. Shown is the average of three independent experiments.
(§1) FIG. 6A depicts an analysis of the breast cancer cell lines MCF-7, MB-468, SK-BR-3, MB-231, T47D and BT549 for an apoptotic effect of 5 μM 3-deazaneplanocin over a time frame of 120 hours. Cell death was measured by FACS analysis. Data presented are the average of three independent experiments.
Cell lines used in these examples were purchased from the American Type Culture Collection (Manassas, Va.). Cells were maintained in DMEM supplemented with 10% fetal bovine serum with glutamine, penicillin, and streptomycin. For drug treatment, cells were seeded the day before the drug treatment. […]
It was observed that 3-deazaneplanocin at 5 μM could induce 25% cell death at 48 hours and 45% of cell death at 72 hours, as determined by propodium iodide (PI) staining and flow cytometry analysis (FIG. 3A). […]

MCF10A cells = assay: Apoptosis by FACS analysis in non-cancerous cells; type: cell-based; conditions: 5 μM
Method: Cells were treated with 5 μM 3-deazaneplanocin (DZNep, dark bars) for indicated times.
as §1
(§2) Cells were trypsinised and washed with PBS and fixed in 70% ethanol and processed for propidium iodide staining and FACS analysis. For the caspase 3 activity assay and mitochondrial membrane potential detection, cells were stained with anti-active caspase 3 and JC-1, respectively, according to the manufacturer's instructions (BD Bioscience).
To determine whether 3-deazaneplanocin preferentially induces apoptosis in cancer cells, the apoptosis induction between MCF-7 cells and the non-cancerous breast epithelial MCF10A cells was compared for various periods of time. […] In addition, normal primary colon epithelial CC33D cells, like MCF10A cells, were also resistant to 3-deazaneplanocin treatment compared to colorectal cancer HCT116 cell, as evaluated by microscopy examination (FIGS. 3G & 3H).
To extend the observation seen in MCF-7 cells, additional breast cancer cell lines were screened, including MB-468, SK-BR-3, MB-231, T47D and BT549. […]

MCF-7 and HCT116 cells = assay: Mitochondrial membrane potential by JC-1 staining and flow cytometry; type: cell-based; conditions: JC-1, flow cytometry
Text: FIG. 3B depicts the detection of mitochondrial membrane potential of HCT116 cells by staining with the dye 5,5′,6,6′-tetrachloro-1,1′,3,3′-tetraethyl-benzamidazolocarbocyanin iodide (JC-1).
FIG. 3C compares the apoptosis in HCT116 cells (right hand side, data of FIG. 3B) to the apoptosis in MCF-7 cells (left hand side).
as §2
To elucidate the mechanisms by which 3-deazaneplanocin induces cell death, flow cytometry was used to analyse the loss of mitochondrial membrane potential (ΔΨm) in MCF-7 and HCT116 cells after 3-deazaneplanocin treatment (FIGS. 3B & 3C).

Nc1nccc2c1ncn2C1C=C(CO)C(O)C1O (centres unmarked) [3-deazaneplanocin, 5-(4-amino-1H-imidazo[4,5-c]pyridin-1-yl)-3-(hydroxymethyl)-3-cyclopentene-1,2-diol]
protein levels of PRC2 components SUZ12, EZH2 and EED [1]: dramatic decrease | activation of the protease caspase 3 [2]: activation | mRNA levels of each of the PRC2 proteins (RT-PCR) [3]: remained unchanged | sensitivity to 3-deazaneplanocin-induced cell death (MB-468 cells; MB-468, 5 μM, time course to 120 hours): highly susceptible | cell death (MB-468 cells; breast cancer MB-468 cells, 5 μM): obvious cell death | sensitivity to 3-deazaneplanocin-induced cell death (MCF10A cells; MCF10A, time course to 120 hours): highly resistant | apoptosis induction (MCF10A cells; non-cancerous breast epithelial MCF10A cells, up to 96 hours): no obvious apoptosis | loss of mitochondrial membrane potential (ΔΨm) (MCF-7 and HCT116 cells): marked increase in the percentage of cells with lower ΔΨm
